According to BindingDB's records for PubMed 9152366 (University of California San Francisco, 1997):
Several values for one entry are separate records, joined by “and”; a condition that tells them apart may be missing. Identical values can stand only once. Bridge positions count the residues as written; N and C are the ends. Square brackets hold non-standard residues; d marks the D form. Peptide text beside a SMILES is read from it. Nle = CCCC[C@H](N)C(=O)O

Legend:
VIP peptides = biological target: T1, VIP peptides (Homo sapiens, UniProt P01282)
T1 sequence (P01282 whole entry): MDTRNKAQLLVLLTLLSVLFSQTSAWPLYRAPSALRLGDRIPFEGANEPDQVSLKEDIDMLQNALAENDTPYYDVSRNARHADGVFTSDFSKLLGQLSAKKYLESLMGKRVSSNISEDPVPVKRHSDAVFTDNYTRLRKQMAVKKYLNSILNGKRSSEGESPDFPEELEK

[1] = biological target: T2, Vasoactive intestinal polypeptide receptor 2 (Homo sapiens, UniProt P41587)
T2 sequence (P41587 whole entry): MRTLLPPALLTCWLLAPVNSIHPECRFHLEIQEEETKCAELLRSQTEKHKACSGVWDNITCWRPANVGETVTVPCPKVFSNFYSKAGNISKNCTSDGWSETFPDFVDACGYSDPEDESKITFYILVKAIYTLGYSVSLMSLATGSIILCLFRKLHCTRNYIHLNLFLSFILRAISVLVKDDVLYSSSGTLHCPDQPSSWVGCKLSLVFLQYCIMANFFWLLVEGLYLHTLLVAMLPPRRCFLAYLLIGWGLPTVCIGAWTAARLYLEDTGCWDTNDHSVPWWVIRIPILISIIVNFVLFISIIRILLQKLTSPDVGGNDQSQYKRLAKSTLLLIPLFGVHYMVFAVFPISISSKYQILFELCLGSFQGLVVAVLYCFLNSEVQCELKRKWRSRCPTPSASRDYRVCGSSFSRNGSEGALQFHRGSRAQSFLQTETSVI

In the case of `CCCC[C@H](NC(=O)[C@H](CCC(N)=O)NC(=O)[C@H](CCCCN)NC(=O)[C@H](CCCNC(=N)N)NC(=O)[C@H](CC(C)C)NC(=O)[C@H](CCCCN)NC(=O)[C@@H](NC(=O)[C@H](Cc1ccc(OC)cc1)NC(=O)[C@H](CC(N)=O)NC(=O)[C@H](CCC(=O)O)NC(=O)[C@@H](NC(=O)[C@H](Cc1ccccc1)NC(=O)[C@@H](NC(=O)[C@H](C)NC(=O)[C@H](CC(=O)O)NC(=O)[C@H](CO)NC(=O)[C@H](Cc1c[nH]cn1)NC(C)=O)C(C)C)[C@@H](C)O)[C@@H](C)O)C(=O)N[C@@H](C)C(=O)N[C@@H](C)C(=O)N[C@@H](CCCCN)C(=O)N[C@H]1CCCCNC(=O)C[C@@H](C(=O)N[C@@H](CC(C)C)C(=O)N[C@@H](CCCCN)C(=O)N[C@@H](CCCCN)C(N)=O)NC(=O)[C@H](CC(N)=O)NC(=O)[C@H](CC(C)C)NC(=O)[C@H](Cc2ccc(O)cc2)NC1=O` [CAS_150828-75-4] (Ac-HSDAVFTENY(Me)TKLRKQ[Nle]AAKKYLNDLKK-NH2; lactam 21-25), the Ki (VIP peptides) is reported as 3.4 nM and the Ki [1] is reported as 16 nM and 9.6 nM.
